In PMC3130785, “Small Compound 6-O-Angeloylplenolin Induces Mitotic Arrest and Exhibits Therapeutic Potentials in Multiple Myeloma” (PLoS ONE, 2011):

How the values were obtained:
[1] = test system: Staphylococcus aureus; design: method as in PMID 9461679, PMID 8657743, PMID 12521264; details: cited from earlier work
[2] = test system: Bacillus subtilis; design: method as in PMID 9461679, PMID 8657743, PMID 12521264; details: cited from earlier work
[3] = test system: pERK1/2; experiment: Western blotting, 6-OAP/BOR; type: cell-based, human; details: MM.1S; BOR 3 nM for 12 to 24 h with 6-OAP 5 µM
Method: Cell pellets were lysed in RIPA buffer containing 50 mM Tris pH 8.0, 150 mM NaCl, 0.1% SDS, 0.5% deoxycholate, 1% NP-40, 1 mM DTT, 1 mM NaF, 1 mM sodium vanadate, and protease inhibitors cocktail (Sigma). For immunoprecipitations, cells were lysed on ice for 15 minutes in RIPA buffer. Lysates were centrifuged. The supernatant was incubated with indicated antibodies overnight, after which protein A/G Plus beads (Santa Cruz Biotechnology) were added and incubated for 3 h. The beads were washed 4 times in RIPA buffer. Then the beads were resuspended in 1× sample buffer and boiled for 3 min. Protein extracts were quantitated and loaded on 8% to 12% sodium dodecyl sulfate polyacrylamide gel, electrophoresed, and transferred to a nitrocellulose membrane (Whatman). The membrane was incubated with primary antibody, washed, and incubated with horseradish peroxidase (HRP)–conjugated secondary antibody (Pierce). Detection was performed by using a chemiluminescent western detection kit (Cell Signaling). […]

[4] = test system: MM.1R cells; experiment: MTT assay, Dex with or without 6-OAP; type: cell-based, human; details: Dex 1 to 2 µM alone, 48 h, MTT
Method: U266, RPMI 8226 cells (1×10^4), primary CD138+ cells, PBMCs (5×10^4), and BMSCs (1×10^4) were cultured in 96-well dishes and incubated without or with 6-OAP at indicated concentration for 48 h. MM.1S and MM.1R cells (2×10^4) were seeded into 96-well dishes and pre-cultured for 24 h, then treated with 6-OAP for 48 h. Cell proliferation was determined by MTT assay. Cell viability was estimated by trypan blue dye exclusion.
Figure 4 6-OAP enhances cytotoxicity of Dox, Dex and BOR to MM cells. (A through C) MM.1S cells were treated for 48 h with Dox (A), Dex (B) or BOR (C) in the presence or absence of 6-OAP at 5 µM. MTT assay was used to test the proliferation of MM.1S cells. (D) MM.1R cells were treated for 48 h with Dex in the presence or absence of 6-OAP at 7.5 µM. MTT assay was used to test the proliferation of MM.1R cells. *p<.001,** p<.05. (E) MM.1S cells were cultured with control media (con), 6-OAP (O, 5 µM), BOR (B, 3 nM), or 6-OAP (5 µM) plus BOR (3 nM) (OB) for indicated time points. Cells were then lysed and subjected to Western blotting using indicated antibodies. CF, cleavage fragment.

Structure (SMILES) | antibacterial activity [1] | antibacterial activity [2] | 6-OAP-induced pERK1/2 upregulation [3] | inhibition of cell proliferation [4]
CC(C)C(=O)OC1C2C(CC(C)C3C=CC(=O)C31C)OC(=O)C2C (stereo not drawn) [6-O-isobutyroylplenolin] | exhibit antibacterial activity | exhibit antibacterial activity | – | –
C=C(C)C(=O)OC1C2C(CC(C)C3C=CC(=O)C31C)OC(=O)C2C (stereo not drawn) [6-O-methylacrylylplenolin] | exhibit antibacterial activity | exhibit antibacterial activity | – | –
CC(C)C[C@H](NC(=O)[C@H](Cc1ccccc1)NC(=O)c1cnccn1)B(O)O [BOR, bortezomib, reference compound] | – | – | dramatically inhibited 6-OAP-induced pERK1/2 upregulation | –
C[C@@H]1C[C@H]2[C@@H]3CCC4=CC(=O)C=C[C@]4(C)[C@@]3(F)[C@@H](O)C[C@]2(C)[C@@]1(O)C(=O)CO [Dex, Dexamethasone, reference compound] | – | – | – | slight inhibition rate
